Assay results taken from patent US10913773B2, “Bicyclic peptidyl inhibitor of tumor necrosis factor-alpha” (Ohio State Innovation Foundation, priority 2016, dated 2021).
Values belong to the molecule of their own block, whether it stands above or below them. Starred links: 1 amine or outer side, 2 acyl side, 3 side chain; linkers in the order of their positions; H or OH if unused. Positions of bridges follow the written chain, without caps; N, C: chain ends. Non-standard residues stand in square brackets, D forms with d. Residues, ends and D or L forms follow the SMILES beside them. Primed or numbered codes have the meaning given here. No end group written: not given here. *: point of attachment. FITC = O=C1OC2(c3ccc(O)cc3Oc3cc(O)ccc32)c2ccc(NC(=S)*)cc21; Trimesoyl = O=C(c1cc(C(=O)[*:2])cc(C(=O)[*:3])c1)[*:1]; trimesoyl″ = benzene-1,3,5-tricarbonyl scaffold; Phe(4-F) = N[C@@H](Cc1ccc(F)cc1)C(=O)O; trimesoyl = benzene-1,3,5-tricarbonyl; Nle = CCCC[C@H](N)C(=O)O; Dap = NC[C@H](N)C(=O)O; AEEA = NCCOCCOCC(=O)O; βAla = NCCC(=O)O

How the values were obtained:
[1] = target: T1, TNFα-TNFR1 interaction (Homo sapiens, UniProt P01375); assay: ELISA inhibition of TNFα-TNFR1 interaction (immobilized biotinylated TNFα, TNFR1-HRP); format: binding; settings: inhibition of TNFα-TNFR1 interaction, unlabeled peptides
T1 construct: made in house; host or cells: Escherichia coli (TNFα)
Protocol: Inhibition of TNFα-TNRF1 interaction by ELISA was carried out as previously described (Lian, W.; et al., supra).
Because of its high-throughput capability, FA analysis had been used to generate all of the SAR data described above. […] To confirm the SAR data obtained by FA analysis, some of the compounds in Table 5 (as well as new compounds) were resynthesized without the Lys(FITC) label and employed a more sensitive ELISA-based assay to determine the IC50 values for inhibition of the TNFα-TNFR1 interaction. Briefly, biotinylated TNFα was immobilized onto a NeutrAvidin-coated surface. TNFR1 conjugated with horseradish peroxidase (HRP) (0.5 nM) was added along with different concentrations of a peptide inhibitor. After washing, the amount of bound TNFR1-HRP was quantitated by ELISA. […] In agreement with the FA results, either extension at the C-terminus of β-Ala with another amino acid (C1-67 to C1-70) or side-chain modification of β-Ala (C1-71 to C1-73) decreased TNFα binding.

[2] = system: TNFα-induced cell death in WEHI-13VAR fibroblasts (recombinant human TNFα); format: cell-based
Protocol: WEHI-13VAR fibroblasts were purchased from American Type Culture Collection (ATCC). For maintenance, cells were grown in full medium as RPMI-1640 supplemented with 10% FBS and 1% Abs. For toxicity assay, cells were seeded in a 96-well plate at a density of 5×10^3 cells/well in 100 μL of RPMI-1640/1% Abs supplemented with 10% or 5% FBS and allowed to grow overnight. Varying concentrations of recombinant human TNFα (0-250 ng/mL) or commercial mouse TNFα were (0-100 pg/mL) were incubated with 10 μM peptide and actinomycin D (1 μg/mL) in 100 μL of corresponding growth medium for 1 h at 37° C. Next, the medium in the 96-well plate was removed and replaced with the above fresh mixture and the cells were incubated overnight. Next day, 10 μL of the 3-(4, 5-dimethylthiazolyl-2)-2, 5-diphenyltetrazolium bromide (MTT, final concentration 0.5 mg/ml) was added to each well and incubated at 37° C. for 3 h, following by the addition of 100 μL of the MTT solubilization solution. The plate was kept in the incubator overnight to let the formazan crystals to completely dissolve, and the absorbance at 570 nm was measured on a TECAN plate reader. The LD50 was obtained as plotting the viability as a function of the TNFα concentration.
One of the biological functions of TNFα is to induce death signaling. Inhibitors against the TNFα-TNFR interaction are expected to protect cells against TNFα induced cell death. Therefore, anticachexin C1, C1-74, and C1-74-2 through C1-74-5 were compared for their ability to protect cultured WEHI-13 VAR fibroblasts, which are highly sensitive to TNFα in the presence of actinomycin-D, against TNFα-induced cell death (Khabar, K. S. A.; et al., “WEHI-13VAR: A Stable and Sensitive Variant of WEHI 164 Clone 13 Fibrosarcoma for Tumor Necrosis Factor Bioassay.” Immunol. Lett. 1995, 46:107-110). The cells were treated with a fixed concentration of peptides (10 μM) and varying concentrations of TNFα (0-1 μM), and the fraction of live cells was quantitated by the 3-(4,5-dimethylthiazol-2-yl)-2,5-diphenyltetrazolium bromide (MTT) assay. […] The MTT assay was also conducted at a fixed concentration of TNFα (0.4 ng/mL) but varying concentrations of peptides (0-10 μM).

[3] = Serum stability test; format: in vitro ADME, human; settings: 37° C.
Protocol: Diluted human serum (25%) was centrifuged at 15,000 rpm for 10 min, and the supernatant was collected. A peptide stock solution was diluted into the supernatant to a final concentration of 5 μM and incubated at 37° C. At various time points (0-8 h), 200-μL aliquots were withdrawn and mixed with 50 μL of 15% trichloroacetic acid and 200 μL of acetonitrile. After incubation at 4° C. overnight, the mixture was centrifuged at 15,000 rpm for 10 min in a microcentrifuge, and the supernatant was analyzed by reversed-phase HPLC equipped with an analytical C18 column (Waters). The amount of remaining intact peptide (%, relative that of time zero control) was determined by integrating the area underneath the peptide peak (monitored at 214 nm).

[4] = target: T2, Recombinant TNFα containing an N-terminal 13-aa ybbR tag (human, UniProt P01375 77-233, biotin at the ybbR tag in the ELISA assays); assay: ELISA, inhibition of TNFR1-HRP binding to immobilized biotin-TNFα
T2 construct: Expressed in E. coli; Same construct used unlabelled (FA) and biotinylated on NeutrAvidin (ELISA); also called tumor necrosis factor-alpha; human TNFα; not shown: N-terminal 13-aa ybbR tag
Text: Because of its high-throughput capability, FA analysis had been used to generate all of the SAR data described above. […] Briefly, biotinylated TNFα was immobilized onto a NeutrAvidin-coated surface.

[5] = target: T2, Recombinant TNFα containing an …; assay: cell-based or functional assay
[6] = target: Recombinant TNFα containing an N-terminal 13-aa ybbR tag (human) (UniProt P01375); assay: FA, FITC-peptide + TNFα titration
Chain of Recombinant TNFα containing an N-terminal 13-aa ybbR tag (human) (P01375 77-233): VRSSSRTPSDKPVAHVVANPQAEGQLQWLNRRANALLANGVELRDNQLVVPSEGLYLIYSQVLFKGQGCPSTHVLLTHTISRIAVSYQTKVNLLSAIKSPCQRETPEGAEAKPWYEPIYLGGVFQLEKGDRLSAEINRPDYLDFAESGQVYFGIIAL

T2 sequence (P01375 77-233): as above

B1: C1-68 (peptide)
peptide: [Nle]Y[dS]KW[dH]G[dK]H[Dap][βAla]A-NH2
modifications: linker N-4-10 via trimesoyl″
notes: No Lys(FITC) label
IC50 [4]: 2600 nM

B3: C1-38 (peptide)
peptide: [Nle][Phe(4-F)][dS]K[Phe(4-F)][dH]G[dK]H[Dap]K(FITC)-NH2
modifications: linker (positions not given here) via trimesoyl; not fully specified (N-terminus, bridges)
Kd [6]: 2100 nM

B4: C1-56 (peptide)
peptide: [Nle]Y[dS]KW[dH]G[dK]H[Dap][dF][AEEA]K(FITC)-NH2
modifications: linker (positions not given here) via trimesoyl; not fully specified (N-terminus, bridges)
Kd [6]: 630 nM

Second part, led by results:

IC50 [1]: 70 nM
Molecule: CCCC[C@@H]1NC(=O)c2cc3cc(c2)C(=O)NC[C@@H](C(=O)NCCC(N)=O)NC(=O)[C@H](Cc2c[nH]cn2)NC(=O)[C@@H](CCCCN)NC(=O)CNC(=O)[C@@H](Cc2c[nH]cn2)NC(=O)[C@H](Cc2c[nH]c4ccccc24)NC(=O)[C@H](CCCCNC3=O)NC(=O)[C@@H](C)NC(=O)[C@H](Cc2ccc(O)cc2)NC1=O [Compound C1-74] ([Nle]Y[dA]KW[dH]G[dK]H[Dap][βAla]-NH2; linker N-4-10 via Trimesoyl)
EC50 [2]: ~1000 nM

Time to complete degradation in human serum [3]: ≤ 2 h
half-life at 5 μM ([3]; human, diluted human serum (25%), supernatant after centrifugation): ~15 min
Molecule: DRQIKIWFQNRRMKWKKTALDWSWLQTE [Antp-NBD]

EC50 of protection of WEHI-13VAR cells from 0.4 ng/mL TNFα, MTT [5]: ~1000 nM
B2: C1-74 (peptide)
peptide: [Nle]Y[dA]KW[dH]G[dK]H[Dap][βAla]-NH2
modifications: linker N-4-10 via trimesoyl
notes: C1-66 with D-Ser3 reverted to D-Ala; also called bicyclic peptide C1-74
